Like-named read-outs stand apart in the source and are kept apart here.
Legend:
Phytophthora nicotianae = test: Fungus tests: relative lengths of germ tubes (untitled table, buffers I/II); format: cell-based
Protocol: Fungus tests: Relative lengths of germ tubes
(§1) The bactericidal effect of the individual fragments is readily determined by incubation (use of 1-10 μg polypeptide for a quantity of 1×10^7 bacteria cells) for one hour with Escherichia coli or other gram-negative (e.g. Erwinia carotovora, Agrobacterium tumefaciens, Pseudomonas fluorescens) or gram-positive type of bacteria (e.g. Micrococcus lysodeikticus, Clavibacter michiganensis), followed by plating out a dilution series of the suspension, and counting the surviving bacteria. The fungicidal effect of the individual fragments is determined by incubation for 20 hours with spores of Phytophthora nicotianae, or other fungus types, followed by plating out to determine the reduced growth length of the fungus hyphae. The activity is determined in relation to purified T4 lysozyme as standard.

Escherichia coli cells = test: Relative survival rates of Escherichia coli cells after 1 hr incubation (bactericidal activity); format: cell-based; settings: for Relative survival rate of Escherichia coli cells: in 0.1 × PBS, 1 hr incubation
Protocol: The antibiotic effectiveness of the polypeptides of the invention is illustrated by their effect on survival rates of Escherichia coli cells in Table 1.
as §1

[1] = system: Phytophthora nicotianae zoospores; test: Relative length of germ tubes of Phytophthora nicotianae zoospores (fungicidal activity, Table 2); format: cell-based; settings: 10 μg, in 0.1 xPBS, after 7 hrs, against blank control
muramidase = test: Enzyme activity (muramidase) of the polypeptide; format: biochemical, bacteriophage T4

Sequence | Relative lengths of germ tubes (Phytophthora nicotianae; 10 μg, in buffer II (20 μl buffer Al + 1 μl 50% DMSO/50% PBS)) | Relative survival rate of Escherichia coli cells (Escherichia coli cells; 1 μg) | Relative survival rate of Escherichia coli cells (Escherichia coli cells; 10 μg) | Bactericidal activity compared with T4 lysozyme, in words (Escherichia coli cells; comment on Table 1) | Relative length of germ tubes [1] | Relative lengths of germ tubes (Phytophthora nicotianae; 1 μg, in buffer I (20 μl buffer Al + 1 μl PBS)) | Enzyme activity (muramidase), in words (muramidase) | Enzyme activity (muramidase), in words (muramidase; listed as amino acid 143-155)
WDEAAVNLAKSRWYNQ [Peptide A23, peptide including AA 126-141 of T4 lysozyme] | 0.69 | – | – | – | – | – | – | –
PNRAKRVIFTFRT [Peptide A4] | – | 0.74 +/− 0.14 | 0.05 +/− 0.09 | significantly higher bactericidal activity | 0.48 | 0.59 | no enzymatic muramidase activity | none of the native enzymatic activity

Source: US6515106B1, “Lysozyme-analogous polypeptides with an anti-microbial effect, their production and use” (priority 1997, dated 2003)
